Laboratory results taken from patent publication US20110201818A1, “POLO-LIKE KINASE INHIBITORS” (TAKEDA PHARMACEUTICAL COMPANY LIMITED, priority 2007, published 2011).

Experiments:
[1] = molecular target: T1, human PLK1 (Homo sapiens, UniProt P53350); assay: PLK1 in vitro enzymatic activity assay (phosphorylation of alpha casein by recombinant PLK1); format: biochemical; settings: recombinant FLAG-tagged PLK1, alpha casein substrate, 500 nmol/L ATP, 40 min at room temperature; read-out: pIC50 (PLK1) (converted)
T1 construct: FLAG (DYKDDDDK) (N); made in house; host or cells: Sf21 insect cells, recombinant baculovirus (pFASTBAC1, Bac-to-Bac)
Outline: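 Recombinant PLK1 from baculovirus-infected Sf21 cells (50 ng) phosphorylated 3 μg alpha casein for 40 min at room temperature in HEPES pH 7.5, Mg acetate, DTT buffer with 500 nmol/L ATP plus [γ-32P]ATP. TCA-precipitated phosphoprotein was filter-captured, washed, and counted by scintillation.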

T1 sequence (P53350 with tags, fused parts or gaps): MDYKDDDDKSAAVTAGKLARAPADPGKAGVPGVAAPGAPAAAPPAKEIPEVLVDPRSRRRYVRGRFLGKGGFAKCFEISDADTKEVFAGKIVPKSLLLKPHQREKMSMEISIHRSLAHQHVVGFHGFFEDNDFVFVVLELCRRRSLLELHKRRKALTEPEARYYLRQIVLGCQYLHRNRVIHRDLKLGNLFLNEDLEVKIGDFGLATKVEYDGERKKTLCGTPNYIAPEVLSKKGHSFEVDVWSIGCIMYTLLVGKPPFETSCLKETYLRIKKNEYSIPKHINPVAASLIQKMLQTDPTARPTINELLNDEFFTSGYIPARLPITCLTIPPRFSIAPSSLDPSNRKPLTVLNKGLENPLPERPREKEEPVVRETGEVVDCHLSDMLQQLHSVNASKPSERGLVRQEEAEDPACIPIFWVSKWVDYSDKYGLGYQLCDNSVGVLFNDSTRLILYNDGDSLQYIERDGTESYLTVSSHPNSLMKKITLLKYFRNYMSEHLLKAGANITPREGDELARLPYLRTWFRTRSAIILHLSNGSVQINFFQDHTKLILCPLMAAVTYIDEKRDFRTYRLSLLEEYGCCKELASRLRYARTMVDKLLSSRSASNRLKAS

Row | Structure (SMILES) | IC50 [1] [nM] | melting point [°C]
1 | COc1cc(C(=O)NC2CN(C)C2)ccc1Nc1ncc2c(n1)N(C1CCCC1)CC(F)(F)C(=O)N2C [Compound 4, 4-(9-Cyclopentyl-7,7-difluoro-5-methyl-6-oxo-6,7,8,9-tetrahydro-5H-pyrimido[4,5-b][1,4]diazepin-2-ylamino)-3-methoxy-N-(1-methylazetidin-3-yl)benzamide] | ≤ 2 | 157 to 162
2 | COc1cc(C(=O)NC2CCN(CC(F)(F)F)CC2)ccc1Nc1ncc2c(n1)N(C1CCCCC1)CC(F)(F)C(=O)N2C [Compound 50, 4-(9-cyclohexyl-7,7-difluoro-5-methyl-6-oxo-6,7,8,9-tetrahydro-5H-pyrimido[4,5-b][1,4]diazepin-2-ylamino)-3-methoxy-N-(1-(2,2,2-trifluoroethyl)piperidin-4-yl)benzamide] | ≤ 2 | 213 to 215
3 | COc1cc(C(=O)N[C@@H]2CCN(C)C2)ccc1Nc1ncc2c(n1)N(C1CCCCC1)CC(F)(F)C(=O)N2C [Compound 39, (R)-4-(9-cyclohexyl-7,7-difluoro-5-methyl-6-oxo-6,7,8,9-tetrahydro-5H-pyrimido[4,5-b][1,4]diazepin-2-ylamino)-3-methoxy-N-(1-methylpyrrolidin-3-yl)benzamide] | > 2 | 98 to 99
4 | COc1cc(C(=O)NC2CCC(N(C)C)CC2)ccc1Nc1ncc2c(n1)N(C1CCCCC1)CC(F)(F)C(=O)N2C (stereo not drawn) [Compound 49, 4-(9-cyclohexyl-7,7-difluoro-5-methyl-6-oxo-6,7,8,9-tetrahydro-5H-pyrimido[4,5-b][1,4]diazepin-2-ylamino)-N-(4-(dimethylamino)cyclohexyl)-3-methoxybenzamide] | ≤ 2 | 208 to 214
5 | COc1cc(C(=O)NN2CCN(C)CC2)ccc1Nc1ncc2c(n1)N(C1CCCC1)CC(F)(F)C(=O)N2C [Compound 6, 4-(9-cyclopentyl-7,7-difluoro-5-methyl-6-oxo-6,7,8,9-tetrahydro-5H-pyrimido[4,5-b][1,4]diazepin-2-ylamino)-3-methoxy-N-(4-methylpiperazin-1-yl)benzamide] |  | 168 to 174
6 | COc1cc(C(=O)NC2CCN(C(=O)CN(C)C)CC2)ccc1Nc1ncc2c(n1)N(C1CCCCC1)CC(F)(F)C(=O)N2C [Compound 71, 4-(9-cyclohexyl-7,7-difluoro-5-methyl-6-oxo-6,7,8,9-tetrahydro-5H-pyrimido[4,5-b][1,4]diazepin-2-ylamino)-N-(1-(2-(dimethylamino)acetyl)piperidin-4-yl)-3-methoxybenzamide] | ≤ 2 | 190 to 191
7 | COc1cc(C(=O)N[C@@H]2CCCNC2)ccc1Nc1ncc2c(n1)N(C1CCCC1)CC(F)(F)C(=O)N2C [Compound 8, (R)-4-(9-cyclopentyl-7,7-difluoro-5-methyl-6-oxo-6,7,8,9-tetrahydro-5H-pyrimido[4,5-b][1,4]diazepin-2-ylamino)-3-methoxy-N-(piperidin-3-yl)benzamide] | ≤ 2 | 
8 | COc1cc(C(=O)N[C@@H]2CN3CCC2CC3)ccc1Nc1ncc2c(n1)N(C1CCCCC1)CC(F)(F)C(=O)N2C [Compound 46, (S)-4-(9-cyclohexyl-7,7-difluoro-5-methyl-6-oxo-6,7,8,9-tetrahydro-5H-pyrimido[4,5-b][1,4]diazepin-2-ylamino)-3-methoxy-N-(quinuclidin-3-yl)benzamide] | > 2 | 
9 | COc1cc(C(=O)NN2CCN(C(=O)CN(C)C)CC2)ccc1Nc1ncc2c(n1)N(C1CCCCC1)CC(F)(F)C(=O)N2C [Compound 81, 4-(9-cyclohexyl-7,7-difluoro-5-methyl-6-oxo-6,7,8,9-tetrahydro-5H-pyrimido[4,5-b][1,4]diazepin-2-ylamino)-N-(4-(2-(dimethylamino)acetyl)piperazin-1-yl)-3-methoxybenzamide] | ≤ 2 | 
10 | CCC1(F)CN(C2CCCCC2)c2nc(Nc3ccc(C(=O)NC4CN(C)C4)cc3OC)ncc2N(C)C1=O (stereo not drawn) [Compound 97, 4-(9-Cyclohexyl-7-ethyl-7-fluoro-5-methyl-6-oxo-6,7,8,9-tetrahydro-5H-pyrimido[4,5-b][1,4]diazepin-2-ylamino)-3-methoxy-N-(1-methylazetidin-3-yl)benzamide] | > 2 | 

Now from value to molecule:

Row | IC50 [1] [nM] | melting point [°C] | Structure (SMILES)
11 | ≤ 2 | 169 to 172 | C=CC1(F)CN(C2CCCC2)c2nc(Nc3ccc(C(=O)N[C@@H]4CCCNC4)cc3OC)ncc2N(C)C1=O (stereo partly drawn) [Compound 102, 4-(9-cyclopentyl-7-fluoro-5-methyl-6-oxo-7-vinyl-6,7,8,9-tetrahydro-5H-pyrimido[4,5-b][1,4]diazepin-2-ylamino)-3-methoxy-N—((R)-piperidin-3-yl)benzamide]
12 | ≤ 2 | 258 to 263 | COc1cc(C(=O)N[C@H]2CCNC2)ccc1Nc1ncc2c(n1)N(C1CCCCC1)CC(F)(F)C(=O)N2C [Compound 72, (S)-4-(9-cyclohexyl-7,7-difluoro-5-methyl-6-oxo-6,7,8,9-tetrahydro-5H-pyrimido[4,5-b][1,4]diazepin-2-ylamino)-3-methoxy-N-(pyrrolidin-3-yl)benzamide]
13 | > 2 | 98 to 99 | COc1cc(C(=O)NN2CCN(C3CCCC3)CC2)ccc1Nc1ncc2c(n1)N(C1CCCCC1)CC(F)(F)C(=O)N2C [Compound 52, 4-(9-cyclohexyl-7,7-difluoro-5-methyl-6-oxo-6,7,8,9-tetrahydro-5H-pyrimido[4,5-b][1,4]diazepin-2-ylamino)-N-(4-cyclopentylpiperazin-1-yl)-3-methoxybenzamide]
14 | ≤ 2 | 195 to 198 | COc1cc(C(=O)N[C@@H]2CCNC2)ccc1Nc1ncc2c(n1)N(C1CCCCC1)CC(F)(F)C(=O)N2C [Compound 73, (R)-4-(9-cyclohexyl-7,7-difluoro-5-methyl-6-oxo-6,7,8,9-tetrahydro-5H-pyrimido[4,5-b][1,4]diazepin-2-ylamino)-3-methoxy-N-(pyrrolidin-3-yl)benzamide]
15 | > 2 |  | COc1cc(C(=O)NC2CCN(C(=O)CN(C)C)CC2)c(F)cc1Nc1ncc2c(n1)N(C1CCCC1)CC(F)(F)C(=O)N2C [Compound 118, 4-(9-Cyclopentyl-7,7-difluoro-5-methyl-6-oxo-6,7,8,9-tetrahydro-5H-pyrimido[4,5-b][1,4]diazepin-2-ylamino)-N-(1-(2-(dimethylamino)acetyl)piperidin-4-yl)-2-fluoro-5-methoxybenzamide]
